From US20050107289A1, “Anti-microbial peptides and compositions” (priority 2001, published 2005)
Where two headings read alike, the source gives them in different places. Non-standard residues stand in square brackets, D forms with d. Residues, ends and D or L forms follow the SMILES beside them.

Key:
[1] = tested on: vancomycin-resistant Enterococus faecalis (VRE)(ATCC 51575); assay type: cell-based, Enterococcus faecalis; design: key to VRE (in vitro activity): peptide concentration in μg/ml (broth dilution assay); details: for VRE MIC: ATCC 51575; for VRE (in vitro activity): Table 9
Method in brief: (§1)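 MICs come from NCCLS-style (M7-A4) dilution testing, mostly microdilution, with an inoculum near 2.5×10^5 cfu/ml from 4000-fold-diluted overnight cultures. Peptide series were 2-fold steps spanning roughly 400–2 μg/ml, prepared in 9% aqueous sucrose with 5% DMSO.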

[2] = tested on: S. aureus (MRSA) ATCC 33591; assay type: cell-based, Staphylococcus aureus; details: for MRSA (in vitro activity): Table 9
Method in brief: as §1

murine red blood cells = test: Red blood cell hemolysis; assay type: cell-based, mouse; details: for Hemolysis HD50: red cells of murine
Method in brief: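 Hemolysis read as A560 of supernatant, scaled between saline (0%) and 1% Triton X-100 (100%) controls; peptides were serially diluted onto 5% murine red cells in saline plus 10% FBS and incubated 30 min at 37° C.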

E. coli JM109(DE3) = assay type: cell-based, Escherichia coli; details: JM109
Experimental: (§2) The antimicrobial activity of the peptides was determined using a broth dilution assay essentially as descried in the guidelines of the National Committee for […] (NCCLS) [National Committee for Clinical Laboratory Standards. Methods for dilution antimicrobial susceptibility tests for bacteria that grow aerobically. Fourth edition. Approved Standard (1997). Document M7-A4. […] The microdilution method has the advantages of requiring less amount of peptide for each assay and the possibility of multiple simultaneous inoculations and was used in most studies. Several of the strains of bacteria tested are further described in Table 3.
(§3) Preparation of peptide solutions. Stock peptide solutions were prepared in 5% DMSO in aq. sucrose (9%). Determination of peptide concentrations was done by quantitative HPLC analysis using known concentrations of internal standards and/or by measuring UV absorption of tryptophane-containing peptide solutions in H2O (λ=280 εTrp: 5690). Serial 2-fold dilutions were made in the above DMSO/aq. sucrose (9%) mixture with concentrations ranging approximately 400-2 μg/ml and aliquots were dispensed in test tubes (100 μl) for the macrodilution test or in microtiter plates (20 μl) for the microdilution assays.
(§4) Inoculum preparation. Overnight cultures of different microorganisms grown in suitable media were diluted 4000 times to an approximate inoculum size of 2.5×10^5 cfu/ml.
(§5) Macrodilution method. Macrodilution methods were performed using procedures similar to those described in the National Committee for Clinical Laboratory Standards. Methods for dilution antimicrobial susceptibility tests for bacteria that grow aerobically. Fourth edition. Approved Standard (1997). Document M7-A4. (NCCLS,Villanova, Pa., 1997). Two ml aliquots of the above inoculum were dispensed to test tubes containing different peptide solutions.
(§6) Microdilution method. Microdilution methods were performed using procedures similar to those described in the National Committee for Clinical Laboratory Standards. Methods for dilution antimicrobial susceptibility tests for bacteria that grow aerobically. Fourth edition. Approved Standard (1997). Document M7-A4.

[3] = tested on: Bacillus cereus ATCC 11778; assay type: cell-based
Experimental: as §2, §3, §4, §5, §6

[4] = tested on: Streptococcus pneumoniae (ATCC 6301); assay type: cell-based
Experimental: as §2, §3, §4, §5, §6

[5] = media a: anti-microbial media-3 (AM-3)

VRE MIC [1] [µg/mL] | MRSA MIC ([2]; ATCC 33591) [µg/mL] | S. aureus (MRSA) MIC ([2]; ATCC 33591) [µg/mL] | E. coli MIC (E. coli JM109(DE3)) [µg/mL] | B. cerius MIC [3] [µg/mL] | S. pneum. MIC [4] [µg/mL] | SMILES | VRE (in vitro activity) ([1]; media c: Brain Heart Infusion (BHI)) | MRSA (in vitro activity) ([2]; media b: cation adjusted Meuller Hinton broth (MHBII)) | RBC Hemolysis (HD50) (murine red blood cells) | VRE (in vitro activity) ([1]; media a: AM-3) | MRSA (in vitro activity) [2, 5] | Hemolysis HD50 (murine red blood cells) [µg/mL]
100 | 40 | – | 5 | 24 | 12 | CC(C)C[C@H]1NC(=O)[C@H](Cc2c[nH]c3ccccc23)NC(=O)[C@@H](CCCNC(=N)N)NC(=O)[C@H](CCCNC(=N)N)NC(=O)[C@@H](CC(C)C)NC(=O)[C@H](Cc2c[nH]c3ccccc23)NC1=O [SEQ ID NO:115, [RRWLWL]] (cyclo(R[dR]W[dL]W[dL])) | – | – | 90 | 100 | 40 | 90
100 | 30 | – | 3 | 19 | 80 | CC(C)C[C@@H](NC(=O)[C@H](Cc1c[nH]c2ccccc12)NC(=O)[C@@H](CC(C)C)NC(=O)[C@H](Cc1c[nH]c2ccccc12)NC(=O)[C@@H](CCCCN)NC(=O)[C@H](CCCCN)NC(=O)[C@H](N)CCCCN)C(=O)N[C@@H](Cc1c[nH]c2ccccc12)C(N)=O [SEQ ID NO:134, H-KKKWLWLW-NH2] (H-[dK]K[dK]W[dL]W[dL]W-NH2) | – | – | – | – | – | 100
100 | 20 | – | 4 | 19 | 40 | CC(C)C[C@@H](NC(=O)[C@H](Cc1c[nH]c2ccccc12)NC(=O)[C@@H](CC(C)C)NC(=O)[C@H](Cc1c[nH]c2ccccc12)NC(=O)[C@@H](CCCCN)NC(=O)[C@H](CCCNC(=N)N)NC(=O)[C@H](N)CCCNC(=N)N)C(=O)N[C@@H](Cc1c[nH]c2ccccc12)C(N)=O [SEQ ID NO:135, H-RRKWLWLW-NH2] (H-[dR]R[dK]W[dL]W[dL]W-NH2) | – | – | – | – | – | 100
100 | 70 | – | 6 | 22 | 40 | CC(=O)N[C@H](CCCNC(=N)N)C(=O)N[C@@H](CCCNC(=N)N)C(=O)N[C@H](CCCCN)C(=O)N[C@@H](Cc1c[nH]c2ccccc12)C(=O)N[C@H](CC(C)C)C(=O)N[C@@H](Cc1c[nH]c2ccccc12)C(=O)N[C@H](CC(C)C)C(=O)N[C@@H](Cc1c[nH]c2ccccc12)C(N)=O [SEQ ID NO:136, Ac-RRKWLWLW-NH2] (Ac-[dR]R[dK]W[dL]W[dL]W-NH2) | – | – | – | – | – | 100

Second part, the molecule before the results:

SMILES | VRE MIC [1] [µg/mL] | MRSA MIC ([2]; ATCC 33591) [µg/mL] | S. aureus (MRSA) MIC ([2]; ATCC 33591) [µg/mL] | E. coli MIC (E. coli JM109(DE3)) [µg/mL] | B. cerius MIC [3] [µg/mL] | S. pneum. MIC [4] [µg/mL] | VRE (in vitro activity) ([1]; media c: Brain Heart Infusion (BHI)) | MRSA (in vitro activity) ([2]; media b: cation adjusted Meuller Hinton broth (MHBII)) | RBC Hemolysis (HD50) (murine red blood cells) | VRE (in vitro activity) ([1]; media a: AM-3) | MRSA (in vitro activity) [2, 5] | Hemolysis HD50 (murine red blood cells) [µg/mL]
CC(C)C[C@H]1NC(=O)[C@H](CO)NC(=O)[C@@H](CCCCN)NC(=O)[C@H](Cc2c[nH]c3ccccc23)NC(=O)[C@@H](CC(C)C)NC(=O)[C@H](Cc2c[nH]c3ccccc23)NC1=O [SEQ ID NO:28, cyclo-(D-Lys-Ser-D-Leu-Trp-D-Leu-Trp)] (cyclo(S[dL]W[dL]W[dK])) | 100 | 100 | 75 | 100 | 15 | 20 | 100 | 100 | 90 | – | – | –
CC(C)C[C@@H]1NC(=O)[C@@H](Cc2c[nH]c3ccccc23)NC(=O)[C@H](CCCCN)NC(=O)[C@@H](CCCNC(=N)N)NC(=O)[C@H](CCCCN)NC(=O)[C@@H](Cc2c[nH]c3ccccc23)NC(=O)[C@H](CC(C)C)NC(=O)[C@@H](Cc2c[nH]cn2)NC1=O [SEQ ID NO:101, [KRKWLHLW]] (cyclo(K[dR]K[dW]L[dH]L[dW])) | 40 | 40 | – | 12 | 80 | 80 | – | – | 100 | 40 | 40 | 100
CC(C)C[C@H]1NC(=O)[C@H](Cc2c[nH]c3ccccc23)NC(=O)[C@@H](CCCCN)NC(=O)[C@H](CCCNC(=N)N)NC(=O)[C@@H](CCCNC(=N)N)NC(=O)[C@H](Cc2c[nH]c3ccccc23)NC(=O)[C@@H](CC(C)C)NC(=O)[C@H](CCC(=O)O)NC1=O [SEQ ID NO:109, [RRKWLELW]] (cyclo([dR]R[dK]W[dL]E[dL]W)) | 100 | 80 | – | 40 | 195 | 100 | – | – | 100 | 100 | 80 | 100
CC(C)C[C@H]1NC(=O)[C@H](Cc2c[nH]c3ccccc23)NC(=O)[C@@H](CCCCN)NC(=O)[C@H](CCCNC(=N)N)NC(=O)[C@@H](CCCNC(=N)N)NC(=O)[C@H](Cc2c[nH]c3ccccc23)NC(=O)[C@@H](CC(C)C)NC(=O)[C@H](Cc2c[nH]cn2)NC1=O [SEQ ID NO:110, [RRKWLHLW]] (cyclo([dR]R[dK]W[dL]H[dL]W)) | 40 | 25 | – | 15 | 20 | 20 | – | – | 100 | 40 | 25 | 100
CC(C)C[C@H]1NC(=O)[C@H](Cc2c[nH]c3ccccc23)NC(=O)[C@@H](CCCCN)NC(=O)[C@H](CCCNC(=N)N)NC(=O)[C@@H](CCCNC(=N)N)NC(=O)[C@H](Cc2c[nH]c3ccccc23)NC(=O)[C@@H](CC(C)C)NC(=O)[C@H](CCCCN)NC1=O [SEQ ID NO:111, [RRKWLKLW]] (cyclo([dR]R[dK]W[dL]K[dL]W)) | 80 | 12 | – | 6 | 23 | 25 | – | – | 100 | 80 | 12 | 100
CC(C)C[C@H]1NC(=O)[C@H](Cc2c[nH]c3ccccc23)NC(=O)[C@@H](CCCCN)NC(=O)[C@H](CCCNC(=N)N)NC(=O)[C@@H](CCCNC(=N)N)NC(=O)[C@H](Cc2c[nH]c3ccccc23)NC(=O)[C@@H](CC(C)C)NC(=O)[C@H](CO)NC1=O [SEQ ID NO:112, [RRKWLSLW]] (cyclo([dR]R[dK]W[dL]S[dL]W)) | 50 | 12 | – | 12 | 13 | 12 | – | – | 100 | 50 | 12 | 100
